ChEMBL document CHEMBL5338820, “Discovery and Design of Novel Cyclic Peptides as Specific Inhibitors Targeting CCN2 and Disrupting CCN2/EGFR Interaction for Kidney Fibrosis Treatment” (J Med Chem, 2023)
The source made the active and inactive calls. The calls are words filed in the database; no cut-off is given here. Peptide text beside a SMILES is read from it.

Columns and labels:
[1] = target: T1, CCN family member 2 (Homo sapiens) (UniProt P29279); assay: Inhibition of recombinant human CCN2 FL domain expressed in human HK-1 cells assessed as reduction in fibronectin synthesis at 0.1 mg/ml incubated for 24 hrs by Western blotting assay; assay type: cell-based
T1 sequence (whole entry): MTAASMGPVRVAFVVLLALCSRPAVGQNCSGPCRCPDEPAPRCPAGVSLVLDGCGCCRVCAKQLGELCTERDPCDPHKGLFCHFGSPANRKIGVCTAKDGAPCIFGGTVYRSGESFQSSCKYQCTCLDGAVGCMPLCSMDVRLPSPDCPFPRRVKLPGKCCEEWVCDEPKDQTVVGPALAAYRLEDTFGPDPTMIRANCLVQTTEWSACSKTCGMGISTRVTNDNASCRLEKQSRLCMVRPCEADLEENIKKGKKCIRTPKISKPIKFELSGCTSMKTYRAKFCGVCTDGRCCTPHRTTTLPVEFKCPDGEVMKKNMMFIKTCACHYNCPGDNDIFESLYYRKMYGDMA

CCN2-EGFR (Homo sapiens) [2] = target: T2, CCN2-EGFR (Homo sapiens) (UniProt P00533+P29279); assay: Inhibition of His-tagged full length human CCN2 CT domain/human Fc-tagged EGFR protein-protein interaction using TMB as chromogenic substrate at 0.1 mg/ml incubated for 140 mins by microplate reader assay relative to control
[3] = target: T1, CCN family member 2 (Homo sapiens); assay: Inhibition of recombinant human CCN2 FL domain expressed in human […] cells assessed as reduction in COL1A1 synthesis at 0.1 mg/ml incubated for 24 hrs by Western blotting assay; assay type: cell-based
[4] = target: T1, CCN family member 2 (Homo sapiens); assay: Inhibition of recombinant human CCN2 CT domain expressed in human […] cells assessed as reduction in COL1A1 synthesis at 0.1 mg/ml incubated for 24 hrs by Western blotting assay; assay type: cell-based
CCN2-EGFR (Homo sapiens) [5] = target: T2, CCN2-EGFR (Homo sapiens); assay: Inhibition of His-tagged full length human CCN2 FL domain/human Fc-tagged EGFR protein-protein interaction using TMB as chromogenic substrate at 0.1 mg/ml incubated for 140 mins by microplate reader assay relative to control
[6] = target: T1, CCN family member 2 (Homo sapiens); assay: Inhibition of recombinant human CCN2 CT domain expressed in human […] cells assessed as reduction in fibronectin synthesis at 0.1 mg/ml incubated for 24 hrs by Western blotting assay; assay type: cell-based
Mus musculus [7] = assay: Antifibrotic activity against Unilateral ureteric obstruction ligation induced C57BL/6J mouse kidney fibrosis model assessed as downregulation of COL1A1 synthesis at 50 microg/kg,ip administrated for 14 days by Western blotting analysis; assay type: functional, organism-based; conditions: dose 50.0 µg/kg, time 14.0 day
CCN2-EGFR (Homo sapiens) [8] = target: T2, CCN2-EGFR (Homo sapiens); assay: Inhibition of His-tagged full length human CCN2 CT domain/human Fc-tagged EGFR protein-protein interaction using TMB as chromogenic substrate at 100 uM incubated for 140 mins by microplate reader assay relative to control
Mus musculus [9] = assay: Antifibrotic activity against Unilateral ureteric obstruction ligation induced C57BL/6J mouse kidney fibrosis model assessed as reduction of collagen formation at 50 microg/kg,ip administrated for 14 days by […] staining based analysis; assay type: functional, organism-based; conditions: dose 50.0 µg/kg, time 14.0 day
Mus musculus [10] = assay: Antifibrotic activity against Unilateral ureteric obstruction ligation induced C57BL/6J mouse kidney fibrosis model assessed as reduction of renal tubular injury at 50 microg/kg,ip administrated for 14 days by hematoxylin and eosin staining based analysis; assay type: functional, organism-based; conditions: dose 50.0 µg/kg, time 14.0 day
Mus musculus [11] = assay: Antifibrotic activity against Unilateral ureteric obstruction ligation induced C57BL/6J mouse kidney fibrosis model assessed as downregulation of STAT3 phosphorylation at 50 microg/kg,ip administrated for 14 days by Western blotting analysis; assay type: functional, organism-based; conditions: dose 50.0 µg/kg, time 14.0 day
[12] = Half life in Sprague-Dawley rat at 1 mg/kg,SC measured upto 48 hrs by LC-MS/MS analysis; assay type: ADME, organism-based; conditions: in vivo
Mus musculus [13] = assay: Antifibrotic activity against Unilateral ureteric obstruction ligation induced C57BL/6J mouse kidney fibrosis model assessed as downregulation of EGFR phosphorylation at 50 microg/kg,ip administrated for 14 days by Western blotting analysis; assay type: functional, organism-based; conditions: dose 50.0 µg/kg, time 14.0 day
[14] = target: T1, CCN family member 2 (Homo sapiens); assay: Inhibition of recombinant human CCN2 CT domain expressed in human […] cells assessed as reduction in COL1A1 synthesis at 100 uM incubated for 24 hrs by Western blotting assay; assay type: cell-based
[15] = Toxicity in Unilateral ureteric obstruction C57BL/6J mouse model assessed as change in hair color at 50 microg/kg,ip administrated for 14 days; conditions: in vivo, 0.05 mg/kg, 336 h, dose 50 µg/kg, time 14 day
[16] = target: T1, CCN family member 2 (Homo sapiens); assay: Inhibition of recombinant human CCN2 FL domain expressed in human […] cells assessed as reduction in COL1A1 synthesis at 20 uM incubated for 24 hrs by Western blotting assay; assay type: cell-based
Mus musculus [17] = assay: Antifibrotic activity against Unilateral ureteric obstruction ligation induced C57BL/6J mouse kidney fibrosis model assessed as reduction of inflammatory infiltration at 50 microg/kg,ip administrated for 14 days by hematoxylin and eosin staining based analysis; assay type: functional, organism-based; conditions: dose 50.0 µg/kg, time 14.0 day
[18] = target: T1, CCN family member 2 (Homo sapiens); assay: Inhibition of recombinant human CCN2 FL domain expressed in human HK-1 cells assessed as reduction in fibronectin synthesis at 20 uM incubated for 24 hrs by Western blotting assay; assay type: cell-based
CCN2-EGFR (Homo sapiens) [19] = target: T2, CCN2-EGFR (Homo sapiens); assay: Inhibition of His-tagged full length human CCN2 FL domain/human Fc-tagged EGFR protein-protein interaction using TMB as chromogenic substrate at 100 uM incubated for 140 mins by microplate reader assay relative to control
[20] = Cmax in Sprague-Dawley rat at 1 mg/kg,SC measured upto 48 hrs by LC-MS/MS analysis; assay type: ADME, organism-based; set-up: time < 48 hrs, dose 1 mg/kg, route sc; conditions: in vivo
[21] = Tmax in Sprague-Dawley rat at 1 mg/kg,SC measured upto 48 hrs by LC-MS/MS analysis; assay type: ADME, organism-based; conditions: in vivo
[22] = target: T1, CCN family member 2 (Homo sapiens); assay: Inhibition of recombinant human CCN2 FL domain expressed in human […] cells assessed as reduction in COL1A1 synthesis at 4 to 100 uM incubated for 24 hrs by Western blotting assay; assay type: cell-based; conditions: dose 4-100 µM
[23] = target: T1, CCN family member 2 (Homo sapiens); assay: Inhibition of recombinant human CCN2 FL domain expressed in human […] cells assessed as reduction in fibronectin synthesis at 4 to 100 uM incubated for 24 hrs by Western blotting assay; assay type: cell-based; conditions: dose 4-100 µM
[24] = Toxicity in Unilateral ureteric obstruction C57BL/6J mouse model assessed as change in body weight at 50 microg/kg,ip administrated for 14 days; conditions: in vivo, 0.05 mg/kg, 336 h, dose 50 µg/kg, time 14 day
Mus musculus [25] = assay: Antifibrotic activity against Unilateral ureteric obstruction ligation induced C57BL/6J mouse kidney fibrosis model assessed as downregulation of fibronectin synthesis at 50 microg/kg,ip administrated for 14 days by Western blotting analysis; assay type: functional, organism-based; conditions: dose 50.0 µg/kg, time 14.0 day
[26] = target: T1, CCN family member 2 (Homo sapiens); assay: Inhibition of recombinant human CCN2 CT domain expressed in human […] cells assessed as reduction in fibronectin synthesis at 100 uM incubated for 24 hrs by Western blotting assay; assay type: cell-based
CCN family member 2 = target: T3, CCN family member 2 (Homo sapiens, UniProt P29279); assay: Binding affinity to His-tagged full length human CCN2 CT domain assessed as dissociation constant by isothermal titration calorimetry assay
T3 sequence (P29279 whole entry): T1 sequence (whole entry)

[27] = Toxicity in Unilateral ureteric obstruction C57BL/6J mouse model assessed as change in food consumption at 50 microg/kg,ip administrated for 14 days; conditions: in vivo, 0.05 mg/kg, 336 h, dose 50 µg/kg, time 14 day
[28] = Toxicity in Unilateral ureteric obstruction C57BL/6J mouse model assessed as change in behaviour at 50 microg/kg,ip administrated for 14 days; conditions: in vivo, 0.05 mg/kg, 336 h, dose 50 µg/kg, time 14 day
[29] = AUC (0-t) in Sprague-Dawley rat at 1 mg/kg,SC measured upto 48 hrs by LC-MS/MS analysis; assay type: ADME, organism-based; set-up: time < 48 hrs, dose 1 mg/kg, route sc; conditions: in vivo
[30] = target: T1, CCN family member 2 (Homo sapiens); assay: Inhibition of recombinant human CCN2 FL domain expressed in human […] cells assessed as reduction in STAT3 phosphorylation at 100 uM incubated for 24 hrs by Western blotting assay; assay type: cell-based

T2 sequence (P00533 whole entry, looked up, one chain of several, the tested form may be a part): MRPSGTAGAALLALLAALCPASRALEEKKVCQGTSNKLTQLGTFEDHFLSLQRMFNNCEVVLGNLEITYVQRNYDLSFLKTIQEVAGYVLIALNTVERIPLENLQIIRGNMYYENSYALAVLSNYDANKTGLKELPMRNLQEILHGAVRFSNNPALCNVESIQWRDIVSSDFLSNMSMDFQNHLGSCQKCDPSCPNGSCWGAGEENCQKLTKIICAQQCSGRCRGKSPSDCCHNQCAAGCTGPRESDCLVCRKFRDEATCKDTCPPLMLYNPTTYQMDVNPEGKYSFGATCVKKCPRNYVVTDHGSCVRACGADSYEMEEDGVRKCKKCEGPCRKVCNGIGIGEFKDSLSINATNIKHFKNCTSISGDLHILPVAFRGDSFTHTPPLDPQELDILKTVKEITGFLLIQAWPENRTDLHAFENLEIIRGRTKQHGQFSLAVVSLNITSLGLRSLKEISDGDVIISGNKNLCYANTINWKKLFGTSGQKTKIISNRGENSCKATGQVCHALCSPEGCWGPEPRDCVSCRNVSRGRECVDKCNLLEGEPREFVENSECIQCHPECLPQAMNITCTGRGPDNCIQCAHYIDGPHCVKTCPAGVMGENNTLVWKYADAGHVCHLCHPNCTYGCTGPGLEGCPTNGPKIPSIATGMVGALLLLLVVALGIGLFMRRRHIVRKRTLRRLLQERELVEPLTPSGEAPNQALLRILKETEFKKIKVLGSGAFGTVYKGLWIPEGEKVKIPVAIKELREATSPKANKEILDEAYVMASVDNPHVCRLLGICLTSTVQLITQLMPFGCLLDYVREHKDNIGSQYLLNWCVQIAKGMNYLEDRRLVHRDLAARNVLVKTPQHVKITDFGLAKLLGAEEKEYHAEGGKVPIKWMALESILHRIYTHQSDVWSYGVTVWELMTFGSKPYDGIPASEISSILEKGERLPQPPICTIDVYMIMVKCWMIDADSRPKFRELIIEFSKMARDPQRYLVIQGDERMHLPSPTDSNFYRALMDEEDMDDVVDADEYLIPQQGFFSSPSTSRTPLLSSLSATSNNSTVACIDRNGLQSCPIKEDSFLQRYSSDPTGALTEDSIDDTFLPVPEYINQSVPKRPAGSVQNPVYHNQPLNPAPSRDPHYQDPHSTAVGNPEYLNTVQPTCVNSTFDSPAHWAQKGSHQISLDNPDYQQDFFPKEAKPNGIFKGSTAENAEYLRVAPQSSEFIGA

CC(C)C[C@H](NC(=O)[C@@H](N)CC(C)C)C(=O)N[C@@H](C)C(=O)N[C@@H](CC(=O)O)C(=O)N[C@H](C(=O)N[C@H](C(=O)N[C@@H](Cc1c[nH]cn1)C(=O)N[C@@H](Cc1c[nH]cn1)C(=O)N[C@@H](CCCNC(=N)N)C(=O)N1CCC[C@H]1C(=O)N[C@@H](Cc1c[nH]c2ccccc12)C(=O)N[C@H](C(N)=O)[C@@H](C)O)[C@@H](C)O)[C@@H](C)O (H-LLADTTHHRPWT-NH2)
inhibition [1]: Active | inhibition (CCN2-EGFR (Homo sapiens) [2]): 71.4% | inhibition [3]: Active | inhibition [4]: Active | inhibition (CCN2-EGFR (Homo sapiens) [5]): 39.5% | inhibition [6]: Active

C[C@@H](O)[C@@H]1NC(=O)[C@H](Cc2c[nH]c3ccccc23)NC(=O)[C@@H]2CCCN2C(=O)[C@H](CCCNC(=N)N)NC(=O)[C@H](Cc2c[nH]cn2)NC(=O)[C@H](CCCCN)NC(=O)[C@H]([C@@H](C)O)NC1=O (cyclo(HRPWTTK))
Activity (Mus musculus [7]): Active | inhibition (CCN2-EGFR (Homo sapiens) [8]): 76.7% | Activity (Mus musculus [9]): Active | Activity (Mus musculus [10]): Active | Activity (Mus musculus [11]): Active | half-life [12]: 54 min | Activity (Mus musculus [13]): Active | inhibition [14]: Active | Activity [15]: Non-Toxic | inhibition [16]: Active | Activity (Mus musculus [17]): Active | inhibition [18]: Active | inhibition (CCN2-EGFR (Homo sapiens) [19]): 63.8% | Cmax [20]: 1060 ng/mL | Tmax [21]: 60 min | inhibition [22]: Dose-Dependent Effect | inhibition [23]: Dose-Dependent Effect | Activity [24]: Non-Toxic | Activity (Mus musculus [25]): Active | inhibition [26]: Active | Kd (CCN family member 2): 3.1 µM | Activity [27]: Non-Toxic | Activity [28]: Non-Toxic | AUC(0-t) at 48 h [29]: 3030 ng·h/mL | inhibition [30]: Active
